Experimental data: paper doi:10.1101/2024.08.13.607785v1 (biorxiv, 2024)

Experiments:
Parameters in all cases: species or system mixed lysate of K562, MV4-11, THP-1, NCI-H1155
Settings in all cases: DIA-MS residual binding; binder
[1] = biological target: Activated CDC42 kinase 1 ; TNK2 ; Q07912 (Homo sapiens, UniProt Q07912)
[2] = biological target: T1, Cyclin-G-associated kinase ; GAK ; O14976 (Homo sapiens, UniProt O14976)
T1 sequence (O14976 1-1311): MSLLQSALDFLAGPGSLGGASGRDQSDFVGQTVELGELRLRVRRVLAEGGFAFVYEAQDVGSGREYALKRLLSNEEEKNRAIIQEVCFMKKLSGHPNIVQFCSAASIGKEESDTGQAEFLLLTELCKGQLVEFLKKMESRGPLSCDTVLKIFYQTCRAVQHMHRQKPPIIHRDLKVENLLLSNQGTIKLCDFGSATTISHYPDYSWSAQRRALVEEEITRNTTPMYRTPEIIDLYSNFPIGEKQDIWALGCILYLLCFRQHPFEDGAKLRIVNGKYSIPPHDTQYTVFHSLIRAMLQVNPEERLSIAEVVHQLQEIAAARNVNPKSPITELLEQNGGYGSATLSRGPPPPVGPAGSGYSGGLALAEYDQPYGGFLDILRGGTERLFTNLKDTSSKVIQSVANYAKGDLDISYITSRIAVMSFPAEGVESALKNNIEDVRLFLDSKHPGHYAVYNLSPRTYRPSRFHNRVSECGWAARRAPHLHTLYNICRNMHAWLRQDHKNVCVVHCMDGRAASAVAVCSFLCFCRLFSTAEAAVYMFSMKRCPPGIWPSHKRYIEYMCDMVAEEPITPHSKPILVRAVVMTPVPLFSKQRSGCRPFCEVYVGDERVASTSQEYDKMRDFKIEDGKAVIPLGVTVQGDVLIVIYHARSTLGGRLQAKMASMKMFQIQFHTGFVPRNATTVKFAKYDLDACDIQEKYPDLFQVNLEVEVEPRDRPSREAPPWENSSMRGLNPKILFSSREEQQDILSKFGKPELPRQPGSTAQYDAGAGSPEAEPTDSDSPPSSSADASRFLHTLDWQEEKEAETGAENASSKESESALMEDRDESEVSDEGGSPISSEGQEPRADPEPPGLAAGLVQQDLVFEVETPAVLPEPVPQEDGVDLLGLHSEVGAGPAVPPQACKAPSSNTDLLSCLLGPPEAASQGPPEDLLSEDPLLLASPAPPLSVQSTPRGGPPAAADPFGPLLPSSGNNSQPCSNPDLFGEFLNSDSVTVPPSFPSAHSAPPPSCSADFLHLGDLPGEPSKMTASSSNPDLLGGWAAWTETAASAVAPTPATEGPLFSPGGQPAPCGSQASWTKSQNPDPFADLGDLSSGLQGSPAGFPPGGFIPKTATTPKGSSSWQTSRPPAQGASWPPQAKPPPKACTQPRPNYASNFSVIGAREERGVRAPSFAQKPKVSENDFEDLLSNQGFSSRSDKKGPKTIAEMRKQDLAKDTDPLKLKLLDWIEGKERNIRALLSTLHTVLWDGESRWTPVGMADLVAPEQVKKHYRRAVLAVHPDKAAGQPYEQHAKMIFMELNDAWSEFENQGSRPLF

[3] = biological target: T2, Ephrin type-B receptor 2 ; EPHB2 ; P29323 (Homo sapiens, UniProt P29323)
T2 sequence (P29323 1-1055): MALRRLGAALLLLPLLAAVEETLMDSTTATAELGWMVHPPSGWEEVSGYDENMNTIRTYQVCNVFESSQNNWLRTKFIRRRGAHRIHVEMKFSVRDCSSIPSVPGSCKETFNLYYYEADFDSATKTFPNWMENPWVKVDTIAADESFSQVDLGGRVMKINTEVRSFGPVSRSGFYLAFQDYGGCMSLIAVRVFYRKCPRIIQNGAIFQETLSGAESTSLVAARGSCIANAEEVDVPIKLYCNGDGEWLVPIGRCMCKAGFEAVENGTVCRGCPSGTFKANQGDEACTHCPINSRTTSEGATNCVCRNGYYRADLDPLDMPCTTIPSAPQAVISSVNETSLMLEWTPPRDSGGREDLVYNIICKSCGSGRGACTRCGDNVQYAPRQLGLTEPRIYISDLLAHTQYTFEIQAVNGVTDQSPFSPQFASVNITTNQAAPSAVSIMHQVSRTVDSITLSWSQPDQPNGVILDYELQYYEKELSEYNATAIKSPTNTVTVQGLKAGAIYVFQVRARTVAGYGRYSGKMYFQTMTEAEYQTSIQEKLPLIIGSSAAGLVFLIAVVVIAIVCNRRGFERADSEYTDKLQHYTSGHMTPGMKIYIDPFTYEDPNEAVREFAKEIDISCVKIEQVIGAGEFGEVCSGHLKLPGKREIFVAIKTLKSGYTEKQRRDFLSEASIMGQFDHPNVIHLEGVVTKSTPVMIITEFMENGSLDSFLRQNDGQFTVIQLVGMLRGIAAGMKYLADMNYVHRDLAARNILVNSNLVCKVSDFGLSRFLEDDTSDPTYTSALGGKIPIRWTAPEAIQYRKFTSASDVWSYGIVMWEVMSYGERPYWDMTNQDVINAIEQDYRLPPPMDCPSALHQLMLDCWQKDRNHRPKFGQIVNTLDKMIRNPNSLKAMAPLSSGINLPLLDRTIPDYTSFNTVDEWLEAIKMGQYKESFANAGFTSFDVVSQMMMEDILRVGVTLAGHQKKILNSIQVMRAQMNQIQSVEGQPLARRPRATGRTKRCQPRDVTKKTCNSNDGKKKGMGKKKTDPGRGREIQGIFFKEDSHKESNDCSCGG

[4] = biological target: Isoform 3 of Serine/threonine-protein kinase SIK3 ; SIK3-7 ; Q9Y2K2-7 (Homo sapiens, UniProt Q9Y2K2)
[5] = biological target: Isoform 6 of Tyrosine-protein kinase ABL2 ; ABL2-6 ; P42684-6 (Homo sapiens, UniProt P42684)
Sequence of Isoform 6 of Tyrosine-protein kinase ABL2 ; ABL2-6 ; P42684-6 (P42684 whole entry, canonical isoform): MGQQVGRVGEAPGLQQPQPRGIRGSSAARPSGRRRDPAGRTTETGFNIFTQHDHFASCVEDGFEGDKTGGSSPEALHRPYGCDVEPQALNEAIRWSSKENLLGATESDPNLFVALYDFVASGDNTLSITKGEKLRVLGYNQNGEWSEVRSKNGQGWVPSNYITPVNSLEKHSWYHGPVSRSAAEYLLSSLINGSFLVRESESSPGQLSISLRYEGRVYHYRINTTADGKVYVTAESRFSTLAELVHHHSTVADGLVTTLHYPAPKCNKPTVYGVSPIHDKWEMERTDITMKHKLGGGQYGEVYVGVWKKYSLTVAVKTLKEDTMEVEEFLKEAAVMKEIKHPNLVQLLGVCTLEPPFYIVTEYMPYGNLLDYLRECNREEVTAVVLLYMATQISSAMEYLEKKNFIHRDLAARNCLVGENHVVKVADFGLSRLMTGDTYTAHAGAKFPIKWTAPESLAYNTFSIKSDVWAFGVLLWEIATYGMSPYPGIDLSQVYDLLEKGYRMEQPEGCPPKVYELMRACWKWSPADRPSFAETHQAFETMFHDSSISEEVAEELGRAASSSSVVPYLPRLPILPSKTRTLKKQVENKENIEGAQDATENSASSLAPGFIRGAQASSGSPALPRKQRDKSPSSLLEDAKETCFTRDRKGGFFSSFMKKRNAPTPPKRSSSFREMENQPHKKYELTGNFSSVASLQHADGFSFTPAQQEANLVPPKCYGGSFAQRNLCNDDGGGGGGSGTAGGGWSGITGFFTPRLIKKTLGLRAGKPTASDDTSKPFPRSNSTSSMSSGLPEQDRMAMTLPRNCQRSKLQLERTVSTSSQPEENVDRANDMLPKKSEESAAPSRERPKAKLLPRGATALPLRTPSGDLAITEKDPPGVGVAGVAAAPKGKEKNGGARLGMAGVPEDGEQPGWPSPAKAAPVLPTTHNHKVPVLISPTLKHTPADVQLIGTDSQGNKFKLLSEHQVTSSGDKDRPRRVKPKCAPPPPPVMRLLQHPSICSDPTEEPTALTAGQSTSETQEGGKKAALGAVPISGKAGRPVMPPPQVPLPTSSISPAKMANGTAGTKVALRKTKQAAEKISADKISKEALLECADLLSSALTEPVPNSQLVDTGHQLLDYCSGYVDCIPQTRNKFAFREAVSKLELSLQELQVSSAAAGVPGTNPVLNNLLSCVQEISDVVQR

Sequence of Activated CDC42 kinase 1 ; TNK2 ; Q07912 (Q07912 whole entry): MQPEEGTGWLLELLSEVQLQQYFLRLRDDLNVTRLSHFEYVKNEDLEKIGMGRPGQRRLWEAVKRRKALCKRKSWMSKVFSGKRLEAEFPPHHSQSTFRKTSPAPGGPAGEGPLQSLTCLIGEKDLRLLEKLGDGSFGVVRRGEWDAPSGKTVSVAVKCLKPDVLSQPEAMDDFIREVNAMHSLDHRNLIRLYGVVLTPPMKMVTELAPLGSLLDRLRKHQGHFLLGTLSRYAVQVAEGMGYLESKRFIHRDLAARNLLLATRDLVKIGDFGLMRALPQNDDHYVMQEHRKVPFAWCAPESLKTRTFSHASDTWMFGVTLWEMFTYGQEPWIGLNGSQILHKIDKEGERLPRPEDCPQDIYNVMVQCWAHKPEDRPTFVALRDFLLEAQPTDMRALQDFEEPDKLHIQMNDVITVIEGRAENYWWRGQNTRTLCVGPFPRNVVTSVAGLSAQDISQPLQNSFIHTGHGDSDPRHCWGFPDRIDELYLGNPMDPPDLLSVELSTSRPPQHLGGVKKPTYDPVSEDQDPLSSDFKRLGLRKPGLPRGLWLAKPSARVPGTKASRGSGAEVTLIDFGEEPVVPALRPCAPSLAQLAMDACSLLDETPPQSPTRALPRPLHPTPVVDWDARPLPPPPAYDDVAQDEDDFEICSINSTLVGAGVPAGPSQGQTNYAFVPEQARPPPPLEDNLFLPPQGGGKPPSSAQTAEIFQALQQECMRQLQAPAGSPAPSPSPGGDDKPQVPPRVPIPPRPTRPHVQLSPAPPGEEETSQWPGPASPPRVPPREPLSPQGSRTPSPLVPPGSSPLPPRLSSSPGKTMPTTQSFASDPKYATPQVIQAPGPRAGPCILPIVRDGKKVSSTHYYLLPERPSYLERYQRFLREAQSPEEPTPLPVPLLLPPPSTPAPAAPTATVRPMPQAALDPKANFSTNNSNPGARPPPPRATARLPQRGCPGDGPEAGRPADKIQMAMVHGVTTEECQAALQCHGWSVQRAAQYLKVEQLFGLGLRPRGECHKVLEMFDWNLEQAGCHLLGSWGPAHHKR
Sequence of Isoform 3 of Serine/threonine-protein kinase SIK3 ; SIK3-7 ; Q9Y2K2-7 (Q9Y2K2 whole entry, canonical isoform, one chain of several): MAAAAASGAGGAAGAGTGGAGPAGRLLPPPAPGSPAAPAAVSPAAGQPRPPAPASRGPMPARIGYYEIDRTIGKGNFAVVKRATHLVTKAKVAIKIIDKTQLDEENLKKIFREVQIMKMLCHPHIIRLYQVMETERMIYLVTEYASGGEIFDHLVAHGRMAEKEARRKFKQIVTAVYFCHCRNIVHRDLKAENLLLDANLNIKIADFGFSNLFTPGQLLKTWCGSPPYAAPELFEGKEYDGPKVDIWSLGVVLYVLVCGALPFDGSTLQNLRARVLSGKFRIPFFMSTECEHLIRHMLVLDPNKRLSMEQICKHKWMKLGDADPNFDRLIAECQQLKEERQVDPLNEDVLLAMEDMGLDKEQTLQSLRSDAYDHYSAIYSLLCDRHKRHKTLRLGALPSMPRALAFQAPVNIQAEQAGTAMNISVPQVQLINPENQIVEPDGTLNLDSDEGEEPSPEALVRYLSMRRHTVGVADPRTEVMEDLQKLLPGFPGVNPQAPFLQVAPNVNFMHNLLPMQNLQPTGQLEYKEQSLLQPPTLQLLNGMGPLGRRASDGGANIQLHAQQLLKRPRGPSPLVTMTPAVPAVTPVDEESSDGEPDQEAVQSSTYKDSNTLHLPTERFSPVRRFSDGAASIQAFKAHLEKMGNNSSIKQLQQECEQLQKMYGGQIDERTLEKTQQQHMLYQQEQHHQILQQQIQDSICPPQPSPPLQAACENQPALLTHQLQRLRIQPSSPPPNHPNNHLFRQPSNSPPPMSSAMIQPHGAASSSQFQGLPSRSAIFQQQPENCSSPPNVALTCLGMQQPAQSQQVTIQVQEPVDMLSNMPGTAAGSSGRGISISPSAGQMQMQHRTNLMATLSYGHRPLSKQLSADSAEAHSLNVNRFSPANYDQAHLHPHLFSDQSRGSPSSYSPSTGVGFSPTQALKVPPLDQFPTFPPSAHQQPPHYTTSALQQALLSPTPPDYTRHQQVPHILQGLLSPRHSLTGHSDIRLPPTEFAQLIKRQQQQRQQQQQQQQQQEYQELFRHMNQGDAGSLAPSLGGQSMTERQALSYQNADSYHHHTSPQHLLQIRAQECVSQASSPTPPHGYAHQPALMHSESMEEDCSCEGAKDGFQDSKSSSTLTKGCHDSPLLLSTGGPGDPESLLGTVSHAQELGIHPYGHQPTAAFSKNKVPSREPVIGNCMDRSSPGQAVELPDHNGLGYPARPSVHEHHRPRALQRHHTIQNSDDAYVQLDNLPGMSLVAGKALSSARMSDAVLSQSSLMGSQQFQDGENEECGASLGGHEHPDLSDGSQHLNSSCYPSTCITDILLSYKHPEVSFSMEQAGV

Cc1nc(Nc2ncc(C(=O)Nc3c(C)cccc3Cl)s2)cc(N2CCN(CCO)CC2)n1 [dasatinib]
DIA-MS / % Intensity (30 µM/DMSO) [1]: 2.81% | DIA-MS / % Intensity (30 µM/DMSO) [2]: 4.611% | DIA-MS / % Intensity (30 µM/DMSO) [3]: 3.776% | DIA-MS / % Intensity (30 µM/DMSO) [4]: 12.26% | DIA-MS / % Intensity (30 µM/DMSO) [5]: 0.2688%
